# Experimental data published in ChEMBL document CHEMBL1156804, “Potent inhibitors of furin and furin-like proprotein convertases containing decarboxylated P1 arginine mimetics” (J Med Chem, 2010).
# Target: Furin (Homo sapiens, UniProt P09958)
# Sequence (P09958 whole entry): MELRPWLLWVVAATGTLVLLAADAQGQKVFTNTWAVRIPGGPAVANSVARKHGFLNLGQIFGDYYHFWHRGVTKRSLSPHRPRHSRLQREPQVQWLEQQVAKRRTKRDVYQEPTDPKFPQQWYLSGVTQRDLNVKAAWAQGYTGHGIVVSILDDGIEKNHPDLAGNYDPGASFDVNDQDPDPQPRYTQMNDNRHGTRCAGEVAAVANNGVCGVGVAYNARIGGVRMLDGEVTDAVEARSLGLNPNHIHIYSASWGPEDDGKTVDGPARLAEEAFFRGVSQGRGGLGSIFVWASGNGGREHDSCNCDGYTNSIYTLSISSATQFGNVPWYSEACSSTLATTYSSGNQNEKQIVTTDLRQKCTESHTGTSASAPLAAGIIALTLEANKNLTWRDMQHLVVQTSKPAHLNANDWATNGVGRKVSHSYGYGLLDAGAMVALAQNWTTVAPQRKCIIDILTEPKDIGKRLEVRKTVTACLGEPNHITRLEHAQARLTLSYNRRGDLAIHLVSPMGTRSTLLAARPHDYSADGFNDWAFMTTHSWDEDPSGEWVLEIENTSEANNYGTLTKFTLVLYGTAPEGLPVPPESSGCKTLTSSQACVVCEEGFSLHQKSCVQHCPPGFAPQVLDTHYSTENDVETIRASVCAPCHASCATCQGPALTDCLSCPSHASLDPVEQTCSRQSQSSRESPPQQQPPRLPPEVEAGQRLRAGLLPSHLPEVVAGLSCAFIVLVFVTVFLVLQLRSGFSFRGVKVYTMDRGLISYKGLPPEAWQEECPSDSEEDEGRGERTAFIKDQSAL
row,Compound,Ki [nM]
1,CC(C)[C@H](NC(=O)[C@H](CCCN=C(N)N)NC(=O)Cc1ccccc1)C(=O)N[C@@H](CCCN=C(N)N)C(=O)NCc1cccc(CN)c1,1320
2,CC(C)[C@H](NC(=O)[C@H](CCCNC(=N)N)NC(=O)Cc1ccccc1)C(=O)N[C@@H](CCCNC(=N)N)C(=O)NCCCCCN,553
3,CC(C)[C@H](NC(=O)[C@H](CCCN=C(N)N)NC(=O)Cc1ccccc1)C(=O)N[C@@H](CCCN=C(N)N)C(=O)NCCCN=C(N)N,63
4,CC(C)[C@H](NC(=O)[C@H](CCCN=C(N)N)NC(=O)Cc1ccccc1)C(=O)N[C@@H](CCCN=C(N)N)C(=O)NCCCCN,7490
5,CC(C)[C@H](NC(=O)[C@H](CCCN=C(N)N)NC(=O)Cc1ccccc1)C(=O)N[C@@H](CCCN=C(N)N)C(=O)NCCCCCN=C(N)N,1070
6,CC(C)[C@H](NC(=O)[C@H](CCCN=C(N)N)NC(=O)Cc1ccccc1)C(=O)N[C@@H](CCCN=C(N)N)C(=O)NCC1CCNCC1,9710
7,CC(C)[C@H](NC(=O)[C@H](CCCNC(=N)N)NC(=O)Cc1ccccc1)C(=O)N[C@@H](CCCNC(=N)N)C(=O)NCCCN,3020
8,CC(C)[C@H](NC(=O)[C@H](CCCNC(=N)N)NC(=O)Cc1ccccc1)C(=O)N[C@@H](CCCNC(=N)N)C(=O)NCc1ccc(CN)cc1,627
